Laboratory results published in ChEMBL document CHEMBL4265948, “A cardiac glycoside HTF-1 isolated from Helleborus thibetanus Franch displays potent in vitro anti-cancer activity via caspase-9, MAPK and PI3K-Akt-mTOR pathways” (Eur J Med Chem, 2018).
pIC50: −log10 of the molar value. Activity calls are given as the source filed them. The calls are words filed in the database; no cut-off is given here.

Key:
HeLa [1] = assay: Induction of apoptosis in human HeLa cells assessed as necrotic cells at 100 nM after 24 hrs by Annexin-V-FITC/propidium iodide staining based flow cytometry (reference value: 0.031%); assay type: functional
HeLa [2] = assay: Induction of apoptosis in human HeLa cells assessed as late apoptotic cells at 500 nM after 24 hrs by Annexin-V-FITC/propidium iodide staining based flow cytometry (reference value: 11.1%); assay type: functional
HeLa [3] = assay: Induction of morphological changes in human HeLa cells assessed as protrusions in cell membrane at 200 to 500 nM after 24 hrs by scanning electron microscopic analysis; assay type: functional, cell-based
HeLa [4] = assay: Inhibition of PI3K phosphorylation in human HeLa cells after 24 hrs by Western blot analysis; assay type: cell-based
[5] = biological target: Mitogen-activated protein kinase; ERK1/ERK2 (Homo sapiens) (UniProt P27361+P28482); assay: Inhibition of ERK1/2 phosphorylation in human HeLa cells at 50 to 200 nM after 24 hrs by Western blot analysis; assay type: cell-based
HeLa [6] = assay: Antiproliferative activity against human HeLa cells assessed as inhibition of cell proliferation at 100 to 200 nM after 24 hrs by Edu/Hoechst 33342 staining based fluorescence microscopic analysis; assay type: functional
HeLa [7] = assay: Induction of morphological changes in human HeLa cells assessed as cell shrinkage at 200 to 500 nM after 24 hrs by scanning electron microscopic analysis; assay type: functional, cell-based
L02 = assay: Cytotoxicity activity against human LO2 cells after 24 to 48 hrs by MTT assay; assay type: cell-based
[8] = biological target: RAC-alpha serine/threonine-protein kinase (Homo sapiens) (UniProt P31749); assay: Inhibition of AKT phosphorylation in human HeLa cells after 24 hrs by Western blot analysis; assay type: cell-based
HeLa [9] = assay: Induction of apoptosis in human HeLa cells assessed as necrotic cells at 200 nM after 24 hrs by Annexin-V-FITC/propidium iodide staining based flow cytometry (reference value: 0.031%); assay type: functional
HeLa [10] = assay: Inhibition of colony formation in human HeLa cells at 50 nM after 24 hrs by crystal violet staining based microscopic analysis; assay type: functional, cell-based
HeLa [11] = assay: Induction of apoptosis in human HeLa cells assessed as early apoptotic cells at 200 nM after 24 hrs by Annexin-V-FITC/propidium iodide staining based flow cytometry (reference value: 3.08%); assay type: functional
HeLa [12] = assay: Induction of morphological changes in human HeLa cells assessed as DNA fragmentation at 200 to 500 nM after 24 hrs by Hoechst 33342 staining based fluorescence microscopic analysis; assay type: functional, cell-based
HeLa [13] = assay: Induction of morphological changes in human HeLa cells assessed as wizened nucleus at 200 to 500 nM after 24 hrs by Hoechst 33342 staining based fluorescence microscopic analysis; assay type: functional, cell-based
MCF7 [14] = assay: Cytotoxicity activity against human MCF7 cells after 48 hrs by MTT assay; assay type: functional, cell-based; settings: MCF7, 48 h
HeLa [15] = assay: Induction of apoptosis in human HeLa cells assessed as cleaved caspase-7 expression at 50 to 200 nM after 24 hrs by Western blot analysis; assay type: functional, cell-based
HeLa [16] = assay: Induction of apoptosis in human HeLa cells assessed as early apoptotic cells at 100 nM after 24 hrs by Annexin-V-FITC/propidium iodide staining based flow cytometry (reference value: 3.08%); assay type: functional
HepG2 [17] = assay: Cytotoxicity activity against human HepG2 cells after 24 hrs by MTT assay; assay type: functional, cell-based; settings: HepG2, 24 h
HeLa [18] = assay: Induction of apoptosis in human HeLa cells assessed as viable cells at 500 nM after 24 hrs by Annexin-V-FITC/propidium iodide staining based flow cytometry (reference value: 85.8%); assay type: functional; settings: read-out: Activity
HeLa [19] = assay: Induction of apoptosis in human HeLa cells assessed as viable cells at 100 nM after 24 hrs by Annexin-V-FITC/propidium iodide staining based flow cytometry (reference value: 85.8%); assay type: functional; settings: read-out: Activity
HeLa [20] = assay: Antimigratory activity in human HeLa cells at 25 to 50 nM after 24 to 48 hrs by wound healing assay; assay type: functional, cell-based
HeLa [21] = assay: Down regulation of survivin expression in human HeLa cells at 50 to 200 nM after 24 hrs by Western blot analysis; assay type: functional, cell-based
HeLa [22] = assay: Induction of apoptosis in human HeLa cells assessed as necrotic cells at 500 nM after 24 hrs by Annexin-V-FITC/propidium iodide staining based flow cytometry (reference value: 0.031%); assay type: functional
MCF7 [23] = assay: Cytotoxicity activity against human MCF7 cells after 24 hrs by MTT assay; assay type: functional, cell-based; settings: MCF7, 24 h
[24] = biological target: Ribosomal protein S6 kinase (Homo sapiens) (UniProt P51812+Q9UBS0+O75676+Q15349+O75582+P23443+Q9UK32+Q15418); assay: Inhibition of p70S6K phosphorylation in human HeLa cells after 24 hrs by Western blot analysis; assay type: cell-based
HeLa [25] = assay: Induction of double strand breaks in human HeLa cells assessed as increase in phospho-gammaH2AX expression at 50 to 200 nM after 24 hrs by Western blot analysis; assay type: functional, cell-based
HeLa [26] = assay: Cytotoxicity activity against human HeLa cells after 24 hrs by MTT assay; assay type: functional, cell-based
[27] = biological target: Serine/threonine-protein kinase mTOR (Homo sapiens) (UniProt P42345); assay: Inhibition of mTOR phosphorylation in human HeLa cells after 24 hrs by Western blot analysis; assay type: cell-based
HeLa [28] = assay: Cell cycle arrest in human HeLa cells assessed as accumulation at S phase at 100 nM after 24 hrs by propidium iodide staining based flow cytometry; assay type: functional
HeLa [29] = assay: Induction of apoptosis in human HeLa cells assessed as cleaved caspase-3 expression at 50 to 200 nM after 24 hrs by Western blot analysis; assay type: functional, cell-based
HeLa [30] = assay: Cell cycle arrest in human HeLa cells assessed as accumulation at sub-G1 phase at 200 nM after 24 hrs by propidium iodide staining based flow cytometry; assay type: functional
HeLa [31] = assay: Induction of morphological changes in human HeLa cells assessed as cell shrinkage at 200 to 500 nM after 24 hrs by bright field microscopic analysis; assay type: functional, cell-based
HeLa [32] = assay: Induction of morphological changes in human HeLa cells assessed as chromatin condensation at 200 to 500 nM after 24 hrs by Hoechst 33342 staining based fluorescence microscopic analysis; assay type: functional, cell-based
HeLa [33] = assay: Inhibition of colony formation in human HeLa cells assessed as reduction in colony size at 50 nM after 24 hrs by crystal violet staining based microscopic analysis; assay type: functional, cell-based
HeLa [34] = assay: Induction of apoptosis in human HeLa cells assessed as early apoptotic cells at 500 nM after 24 hrs by Annexin-V-FITC/propidium iodide staining based flow cytometry (reference value: 3.08%); assay type: functional
HeLa [35] = assay: Induction of morphological changes in human HeLa cells assessed as impaired cell adhesion at 200 to 500 nM after 24 hrs by bright field microscopic analysis; assay type: functional, cell-based
HepG2 [36] = assay: Cytotoxicity activity against human HepG2 cells after 48 hrs by MTT assay; assay type: functional, cell-based; settings: HepG2, 48 h
HeLa [37] = assay: Induction of apoptosis in human HeLa cells assessed as cleaved caspase-9 expression at 50 to 200 nM after 24 hrs by Western blot analysis; assay type: functional, cell-based
HeLa [38] = assay: Induction of apoptosis in human HeLa cells assessed as viable cells at 200 nM after 24 hrs by Annexin-V-FITC/propidium iodide staining based flow cytometry (reference value: 85.8%); assay type: functional; settings: read-out: Activity
HeLa [39] = assay: Cell cycle arrest in human HeLa cells assessed as accumulation at S phase at 200 nM after 24 hrs by propidium iodide staining based flow cytometry relative to control; assay type: functional
HeLa [40] = assay: Induction of apoptosis in human HeLa cells assessed as late apoptotic cells at 100 nM after 24 hrs by Annexin-V-FITC/propidium iodide staining based flow cytometry (reference value: 11.1%); assay type: functional
HeLa [41] = assay: Induction of morphological changes in human HeLa cells assessed as cell membrane blebbing at 200 to 500 nM after 24 hrs by scanning electron microscopic analysis; assay type: functional, cell-based
HeLa [42] = assay: Induction of morphological changes in human HeLa cells assessed as formation of apoptotic bodies at 200 to 500 nM after 24 hrs by scanning electron microscopic analysis; assay type: functional, cell-based
HeLa [43] = assay: Induction of apoptosis in human HeLa cells assessed as late apoptotic cells at 200 nM after 24 hrs by Annexin-V-FITC/propidium iodide staining based flow cytometry (reference value: 11.1%); assay type: functional
HeLa [44] = assay: Induction of morphological changes in human HeLa cells assessed as thinner microvilli at 200 to 500 nM after 24 hrs by scanning electron microscopic analysis; assay type: functional, cell-based
[45] = biological target: MAP kinase p38 (Homo sapiens) (UniProt O15264+Q15759+Q16539+P53778); assay: Effect on p38 phosphorylation in human HeLa cells at 50 to 200 nM after 24 hrs by Western blot analysis; assay type: cell-based
[46] = biological target: c-Jun N-terminal kinase, JNK (Homo sapiens) (UniProt P45983+P53779+P45984); assay: Activation of JNK phosphorylation in human HeLa cells after 24 hrs by Western blot analysis; assay type: cell-based
HeLa [47] = assay: Antiinvasive activity in human HeLa cells at 50 nM after 48 hrs by crystal violet staining based microscopic analysis; assay type: functional, cell-based
HeLa [48] = assay: Down regulation of FEN1 expression in human HeLa cells at 50 to 200 nM after 24 hrs by Western blot analysis; assay type: functional, cell-based
HeLa [49] = assay: Down regulation of Bcl2 expression in human HeLa cells at 50 to 200 nM after 24 hrs by Western blot analysis; assay type: functional, cell-based
HeLa [50] = assay: Cytotoxicity activity against human HeLa cells after 48 hrs by MTT assay; assay type: functional, cell-based
HeLa [51] = assay: Induction of morphological changes in human HeLa cells assessed as increase in floating round cells at 200 to 500 nM after 24 hrs by bright field microscopic analysis; assay type: functional, cell-based
HeLa [52] = assay: Induction of apoptosis in human HeLa cells assessed as […] in cleaved PARP expression at 50 to 200 nM after 24 hrs by Western blot analysis; assay type: functional, cell-based
HeLa [53] = assay: Antiproliferative activity against human HeLa cells assessed as inhibition of cell proliferation at 100 to 200 nM after 24 hrs by Ki-67/Hoechst 33342 staining based fluorescence microscopic analysis; assay type: functional

Chain of RAC-alpha serine/threonine-protein kinase (Homo sapiens) (P31749 whole entry): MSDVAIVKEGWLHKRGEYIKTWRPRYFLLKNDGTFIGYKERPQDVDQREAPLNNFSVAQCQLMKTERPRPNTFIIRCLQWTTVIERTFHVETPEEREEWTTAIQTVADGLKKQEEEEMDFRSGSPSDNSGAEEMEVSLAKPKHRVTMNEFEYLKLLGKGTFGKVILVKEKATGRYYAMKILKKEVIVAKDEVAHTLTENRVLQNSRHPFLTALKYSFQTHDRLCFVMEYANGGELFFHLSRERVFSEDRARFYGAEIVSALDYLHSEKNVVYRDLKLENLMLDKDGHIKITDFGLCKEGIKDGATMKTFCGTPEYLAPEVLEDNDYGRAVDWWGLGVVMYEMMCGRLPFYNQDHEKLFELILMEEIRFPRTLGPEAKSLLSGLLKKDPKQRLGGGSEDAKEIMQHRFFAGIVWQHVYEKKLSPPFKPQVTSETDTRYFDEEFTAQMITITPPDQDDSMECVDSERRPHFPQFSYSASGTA
Chain of Mitogen-activated protein kinase; ERK1/ERK2 (Homo sapiens) (P27361 whole entry, looked up): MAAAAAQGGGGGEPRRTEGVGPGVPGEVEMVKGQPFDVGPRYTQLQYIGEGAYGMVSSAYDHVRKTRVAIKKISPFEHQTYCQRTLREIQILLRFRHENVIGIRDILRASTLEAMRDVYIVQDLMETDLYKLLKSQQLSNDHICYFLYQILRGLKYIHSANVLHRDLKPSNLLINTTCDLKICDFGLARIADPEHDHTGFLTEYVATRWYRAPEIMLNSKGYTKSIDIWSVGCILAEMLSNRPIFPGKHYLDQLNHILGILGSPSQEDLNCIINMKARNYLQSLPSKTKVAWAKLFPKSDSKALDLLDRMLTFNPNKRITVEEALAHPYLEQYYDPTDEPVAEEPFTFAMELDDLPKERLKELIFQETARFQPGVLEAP
Chain of Mitogen-activated protein kinase; ERK1/ERK2 (Homo sapiens) (P28482 whole entry, looked up): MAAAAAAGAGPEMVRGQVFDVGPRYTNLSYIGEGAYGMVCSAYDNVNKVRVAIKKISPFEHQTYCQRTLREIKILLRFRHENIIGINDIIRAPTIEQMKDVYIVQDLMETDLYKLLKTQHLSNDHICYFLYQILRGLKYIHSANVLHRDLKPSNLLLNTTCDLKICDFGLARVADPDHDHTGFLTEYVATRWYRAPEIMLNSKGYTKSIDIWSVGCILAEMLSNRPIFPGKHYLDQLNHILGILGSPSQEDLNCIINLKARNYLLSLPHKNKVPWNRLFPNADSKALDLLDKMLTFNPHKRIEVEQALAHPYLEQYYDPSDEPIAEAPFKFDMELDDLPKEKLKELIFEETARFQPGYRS

C[C@]12CC[C@H](O[C@@H]3C[C@H](CO)[C@@H](O)[C@H](O)[C@H]3O)C[C@@H]1CC[C@@H]1[C@@H]2CC[C@]2(C)[C@@H](c3ccc(=O)oc3)[C@@H](O)C[C@]12O
Activity (HeLa [1]): 0.062%
Activity (HeLa [2]): 16.6%
Activity (HeLa [3]): Active
inhibition (HeLa [4]): Dose-dependent effect
inhibition [5]: Active
inhibition (HeLa [6]): Active
Activity (HeLa [7]): Active
Activity (L02): Non-Toxic
inhibition [8]: Dose-dependent effect
Activity (HeLa [9]): 0.1%
inhibition (HeLa [10]): Active
Activity (HeLa [11]): 38.3%
Activity (HeLa [12]): Active
Activity (HeLa [13]): Active
pIC50 (MCF7 [14]): 6.62
Activity (HeLa [15]): Active
Activity (HeLa [16]): 10.2%
pIC50 (HepG2 [17]): 5.85
viability at 0.5 µM (HeLa [18]): 46.9%
viability at 0.1 µM (HeLa [19]): 82.5%
Activity (HeLa [20]): Active
Activity (HeLa [21]): Active
Activity (HeLa [22]): 0.56%
pIC50 (MCF7 [23]): 5.99
inhibition [24]: Dose-dependent effect
Activity (HeLa [25]): Active
pIC50 (HeLa [26]): 6.26
inhibition [27]: Dose-dependent effect
Activity (HeLa [28]): Active
Activity (HeLa [29]): Active
Activity (HeLa [30]): Active
Activity (HeLa [31]): Active
Activity (HeLa [32]): Active
inhibition (HeLa [33]): Active
Activity (HeLa [34]): 36%
Activity (HeLa [35]): Active
pIC50 (HepG2 [36]): 6.66
Activity (HeLa [37]): Active
viability at 0.2 µM (HeLa [38]): 52.9%
Activity (HeLa [39]): 73%
Activity (HeLa [40]): 7.28%
Activity (HeLa [41]): Active
Activity (HeLa [42]): Active
Activity (HeLa [43]): 8.67%
Activity (HeLa [44]): Active
Activity [45]: inactive
Activity [46]: Active
Activity (HeLa [47]): Active
Activity (HeLa [48]): Active
Activity (HeLa [49]): Active
pIC50 (HeLa [50]): 6.80
Activity (HeLa [51]): Active
Activity (HeLa [52]): Active
inhibition (HeLa [53]): Active

C[C@]12CC[C@H](O)C[C@H]1CC[C@@H]1[C@@H]2CC[C@]2(C)[C@@H](c3ccc(=O)oc3)CC[C@]12O [BUFALIN]
Activity (HeLa [9]): 1.86%
Activity (HeLa [11]): 30.9%
pIC50 (HeLa [26]): 6.23
viability at 0.2 µM (HeLa [38]): 53.3%
Activity (HeLa [43]): 13.9%
pIC50 (HeLa [50]): 6.55
